Legend:
[1] = test system: isolated endothelial cells; experiment: Western blot in isolated endothelial cells from Wnt inhibitor-treated diabetic mice; type: in vivo, mouse; details: isolated ECs from Wnt inhibitor-treated diabetic mice
Description: Western blot analysis of Snail1, PPARα, active-β-catenin, and HIF1α proteins in isolated endothelial cells. […] Densitometry calculations are combined from three independent experiments Data are mean±SEM. One-way Anova with Tukey multiple comparison post hoc test was used to calculate statistical significance. Significance—*p<0.05, **p<0.01, ***p<0.001. Isolation of endothelial cells. Endothelial cells from the kidneys of non-diabetic and diabetic mice were isolated using a standardized kit (Miltenyl Biotech, USA) by following the manufacturer's instructions. Briefly, kidneys were isolated and minced into small pieces. Using a series of enzymatic reactions by treating the tissue with trypsin and Collagenase type I solution, a single cell suspension was created. The pellet was dissolved with CD31 magnetic beads and the CD31-labelled cells were separated on a magnetic separator. The cells were further purified on a column. Cell number was counted by hemocytometer and cells were plated on 0.1% gelatin coated Petri dishes. Cell purity was measured by flow cytometry (BD FACSDiva) using PE-conjugated CD31 (BDB553373) (1:100) and FITC-conjugated CD45 (BDB553079) (1:100), both from Becton Dickinson (USA). Western blot. Protein lysates were boiled in sodium dodecyl sulfate (SDS) sample buffer at 94′C for 5 min. […]

diabetic CD-1 mice = experiment: Wnt inhibitor (LGK974) treatment in diabetic CD-1 mice, renal histology, GR and β-catenin; type: in vivo, mouse
Description: FIG. 24A-24J show inhibition of Wnt signaling abolished the fibrogenic phenotype in mice. (FIG. 24A) Immunohistochemical analysis of -catenin expression in the kidneys of control and diabetic CD-1 and C57BL/6 mice. n=8 biologically independent mice/group combined from two independent experiments were evaluated. Scale bar 50 μm. Representative images are shown; original magnification 200×. (FIG. 24B) Relative mRNA expression determined by qRT-PCR of Axin2, Tcf and fibronectin, in kidneys of control and diabetic CD-1 and C57BL/6 mice. n=6 biologically independent mice/group combined from two experiments were evaluated. Expression was normalized to the internal control 18S. (FIG. 24C) Schematic diagram representing the treatment protocol of Wnt inhibitor (LGK974; 5 mg/kg body weight) in diabetic CD-1 mice and (FIG. 24D) in UUO mice. (FIG. 24E) Masson trichrome and Sirius red staining in the kidneys of diabetic and Wnt inhibitor-treated diabetic CD-1 mice. Representative images (original magnification 300×) are shown. Relative area of fibrosis (%) and relative collagen deposition (%) were measured using the ImageJ program. n=8 biologically independent mice/group combined from two experiments were evaluated. Scale bar 50 μm. (FIG. 24F) Masson trichrome and Sirius red staining in the kidneys of UUO and Wnt inhibitor-treated UUO mice. Representative images (original magnification 300×) are shown. Relative area of fibrosis (%) and relative collagen deposition (%) were measured using the ImageJ program. n=8 biologically independent mice/group combined from two experiments were evaluated. Scale bar 50 μm. (FIGS. 24G-24H) GR protein levels in CD31-positive cells were analyzed by immunofluorescence in the kidneys of Wnti-treated diabetic mice and Wnti-treated UUO mice. FITC-labeled GR, rhodamine-labeled CD31 and DAPI were used. Merged images and representative pictures are shown; original magnification 300×. n=7 biologically independent mice/group combined from four experiments were evaluated. Scale bar 50 μm. (FIGS. 24I-24J) Immunohistochemical analysis of active -catenin expression in Wnti-treated diabetic mice and Wnti-treated UUO mice. n=7 biologically independent mice/group combined from three experiments were evaluated. Scale bar 30 μm. Data are mean SEM. In all panels, one-way Anova with Tukey multiple comparison post hoc test was used to calculate statistical significance. Significance—*p<0.05, **p<0.01, ***p<0.001.
A single IP dose of 200 mg/kg STZ was used to induce diabetes in CD-1 mice.
In one experiment, male mice were randomized to one of 4 groups sixteen weeks after induction of diabetes: (i) untreated, (ii) fenofibrate (100 mg/kg), (iii) simvastatin (40 mg/kg), or (iv) Wnt inhibitor (LGK974; 5 mg/kg). In each case, mice were treated for 4 weeks and compared to untreated diabetic CD-1 mice. In another experiment, male diabetic CD-1 mice were randomized into one of 3 groups: (i) untreated (vehicle), (ii) etomoxir (20 mg/kg) or (iii) C75 (15 mg/kg); in each case mice were treated (IP) three times/week for a total 4 weeks.
Morphological Evaluation. A point-counting method was utilized to evaluate the relative area of the mesangial matrix. The inventors analyzed PAS-stained glomeruli from each mouse using a digital microscope screen grid containing 540 (27×20) points. Masson's trichrome-stained images were evaluated by ImageJ software, and the fibrotic areas were estimated.
Sirius red staining. Deparaffinized sections were incubated with picrosirius red solution for 1 hour at room temperature. The slides were washed twice with acetic acid solution for 30 seconds per wash. The slides were then dehydrated in absolute alcohol three times, cleared in xylene, and mounted with a synthetic resin. Sirius red staining was analyzed using ImageJ software, and fibrotic areas were quantified.
Immunohistochemistry. […]

## Cc1cc(-c2ncc(CC(=O)Nc3ccc(-c4cnccn4)cn3)cc2C)ccn1 [LGK974]
[1]
  Snail1, HIF1α and PPARα proteins: A similar effect was observed
Diabetic CD-1 mice; 5 mg/kg
  ECM deposition: greatly diminished
  collagen accumulation: greatly diminished
  glomerulosclerosis: greatly diminished
  relative area of fibrosis: greatly diminished
Diabetic CD-1 mice; kidney immunohistochemistry
  level of β-catenin: suppressed the level of β-catenin
Diabetic CD-1 mice; kidney, GR in CD31-positive cells
  endothelial GR: substantially restored endothelial GR
